Data published in publication PMC8151276, “An Integrated Approach toward NanoBRET Tracers for Analysis of GPCR Ligand Engagement” (Molecules, 2021).

What was measured:
Format in all cases: binding
DRD5 = biological target: T1, DRD5 (Homo sapiens, UniProt P21918); test: NanoBRET screen HiBiT-DRD5 in HEK293; details: DRD5
T1 construct: purchased Promega (in-house HiBiT-GPCR construct library, NanoBRET)
Procedure: (§1) Each tracer candidate was screened across the entire library of HiBiT-GPCR constructs using NanoBRET as the detection modality. As depicted in Figure 4A, the specificity of interactions was evaluated through decrease in BRET due to competitive displacement of a bound tracer by excess parental compound. Each tracer was analyzed for binding to each HiBiT-GPCR fusion in the absence and in the presence of competing parental compound. Briefly, HEK293 cells were transfected with HiBiT-GPCR constructs diluted into promoterless DNA to reduce expression and maximize translocation to the cell surface. Each tracer candidate was then screened at concentrations of 1 μM and 0.1 μM across cells expressing these fusions. Cells were treated for 1.5 h with tracer either alone or in the presence of 20 μM competing parental compound (i.e., control). BRET was measured upon addition of purified LgBiT and subsequent complementation with HiBiT genetically fused to a GPCR. The specificity of interactions was assessed through a decrease in BRET signal due to competitive displacement of the bound tracer. To further gauge the robustness of these interactions, the fold response over the control (i.e., BRETtracer/BRETcontrol) was calculated. We chose a 1.5-fold response, which translates to ≥7-fold signal over noise as the minimal threshold required to score an interaction as positive. […]. Below we highlight the screening results obtained for our exemplary fluorescent tracers based on Clozapine, Amitriptyline and AZD1283.
(§2) HiBiT-GPCR DNA constructs were diluted in 10 mM Tris pH 8 to a final concentration of 0.01 μg/μL, arrayed in 96-well plates and stored at −20 °C. For transfection, HEK293 cells were suspended in Opti-MEM (without phenol red) supplemented with 2% fetal bovine serum (Seradigm) and 100 units/mL penicillin–streptomycin (Gibco) at a final concentration of 220,000 cells/mL and dispensed into white 96-well plates at 90 μL/well. Subsequent transfections and screens were carried using an Agilent Bravo Automated Liquid Handling Platform. First, the 96-well HiBiT DNA arrays were diluted 25-fold in Opti-MEM (without serum or phenol red) to a final concentration of 0.0004 μg/μL and 20 μL of the diluted DNAs were transferred into new 96-well plates. Next, promoterless carrier DNA (1 μg/μL) was diluted 25-fold (0.04 μg/μL) and then dispensed into the diluted arrays at 20 μL/well. Following brief mixing, Viafect transfection reagent (Promega) diluted 16-fold into Opti-MEM was dispensed into the plates at 40 μL/well. After mixing by pipetting, plates were incubated for 10 min on the pipetting station deck. The DNA-transfection reagent complexes were then added to plates containing cells. To facilitate the screen, 10 μL of DNA-transfection reagent complexes were added in duplicates to the top 4 and bottom 4 rows, resulting in two identical 48-well arrays per plate. Plates with transfected cells were incubated for 18–20 h at 37 °C/5% CO2. A screen of each tracer across the entire library using two different concentrations requires duplicate plates of transfected cells. Depending on the number of tracers being screened, transfections can be scaled up using the same ratios. The next day, for each tracer, four 20× screening solutions in tracer dilution buffer (Promega) were prepared: two duplicates at final concentration of 20 μM and two duplicates at a final concentration of 2 μM. A competing unmodified compound was added to one of each duplicate at a final concentration of 400 μM. The four resulting solutions were diluted 4-fold in Opti-MEM without serum or phenol red to generate 5× solutions (5 µM and 0.5 µM tracer +/− 100 μM competing compound). To screen the library, a BioTek MultiFlo FX liquid dispenser was used to dispense 22.5 µL of tracer solution to the top 4 rows and 22.5 µL tracer + competing compound solution to the 4 bottom rows. Plates were briefly mixed on an orbital shaker and incubated for 1.5 h at room temperature. […]

LTB4R2 = biological target: T2, LTB4R2 (Homo sapiens, UniProt Q9NPC1); test: NanoBRET screen HiBiT-LTB4R2 in HEK293; details: LTB4R2
T2 construct: purchased Promega (in-house HiBiT-GPCR construct library, NanoBRET)
T2 sequence (Q9NPC1 1-358): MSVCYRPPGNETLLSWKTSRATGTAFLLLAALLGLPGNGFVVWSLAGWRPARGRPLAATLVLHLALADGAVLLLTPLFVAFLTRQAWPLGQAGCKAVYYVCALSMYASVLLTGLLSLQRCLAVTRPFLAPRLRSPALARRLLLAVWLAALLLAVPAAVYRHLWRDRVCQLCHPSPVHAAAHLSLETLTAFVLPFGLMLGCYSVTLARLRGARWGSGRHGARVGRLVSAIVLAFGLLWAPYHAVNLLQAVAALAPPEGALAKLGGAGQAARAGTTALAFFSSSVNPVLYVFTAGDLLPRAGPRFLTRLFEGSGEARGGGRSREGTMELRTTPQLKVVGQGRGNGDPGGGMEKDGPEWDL
Procedure: as §1, §2

BDKRB1 = biological target: T3, BDKRB1 (Homo sapiens, UniProt P46663); test: NanoBRET screen HiBiT-BDKRB1 in HEK293; details: BDKRB1
T3 construct: purchased Promega (in-house HiBiT-GPCR construct library, NanoBRET)
T3 sequence (P46663 1-353): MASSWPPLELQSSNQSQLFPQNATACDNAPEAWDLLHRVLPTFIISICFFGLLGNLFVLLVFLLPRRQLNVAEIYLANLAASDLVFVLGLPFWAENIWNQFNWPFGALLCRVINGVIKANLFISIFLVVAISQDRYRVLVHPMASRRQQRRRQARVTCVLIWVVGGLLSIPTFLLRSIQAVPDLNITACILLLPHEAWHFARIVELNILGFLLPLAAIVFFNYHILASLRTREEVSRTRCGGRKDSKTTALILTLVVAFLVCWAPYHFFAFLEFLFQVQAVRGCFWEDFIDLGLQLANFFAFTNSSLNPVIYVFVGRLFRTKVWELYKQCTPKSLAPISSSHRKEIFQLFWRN
Procedure: as §1, §2

GALR1 = biological target: T4, GALR1 (Homo sapiens, UniProt P47211); test: NanoBRET screen HiBiT-GALR1 in HEK293; details: GALR1
T4 construct: purchased Promega (in-house HiBiT-GPCR construct library, NanoBRET)
T4 sequence (P47211 1-349): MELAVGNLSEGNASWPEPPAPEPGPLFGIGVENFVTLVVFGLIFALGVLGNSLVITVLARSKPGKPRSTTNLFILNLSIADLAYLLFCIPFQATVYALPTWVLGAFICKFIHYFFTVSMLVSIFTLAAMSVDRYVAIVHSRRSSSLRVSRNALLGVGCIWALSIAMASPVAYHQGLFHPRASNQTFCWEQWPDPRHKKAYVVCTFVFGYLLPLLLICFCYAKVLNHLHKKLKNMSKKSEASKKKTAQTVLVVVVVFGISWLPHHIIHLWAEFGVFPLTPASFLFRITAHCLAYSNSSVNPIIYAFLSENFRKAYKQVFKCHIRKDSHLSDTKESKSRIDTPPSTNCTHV
Procedure: as §1, §2

T1 sequence (P21918 whole entry): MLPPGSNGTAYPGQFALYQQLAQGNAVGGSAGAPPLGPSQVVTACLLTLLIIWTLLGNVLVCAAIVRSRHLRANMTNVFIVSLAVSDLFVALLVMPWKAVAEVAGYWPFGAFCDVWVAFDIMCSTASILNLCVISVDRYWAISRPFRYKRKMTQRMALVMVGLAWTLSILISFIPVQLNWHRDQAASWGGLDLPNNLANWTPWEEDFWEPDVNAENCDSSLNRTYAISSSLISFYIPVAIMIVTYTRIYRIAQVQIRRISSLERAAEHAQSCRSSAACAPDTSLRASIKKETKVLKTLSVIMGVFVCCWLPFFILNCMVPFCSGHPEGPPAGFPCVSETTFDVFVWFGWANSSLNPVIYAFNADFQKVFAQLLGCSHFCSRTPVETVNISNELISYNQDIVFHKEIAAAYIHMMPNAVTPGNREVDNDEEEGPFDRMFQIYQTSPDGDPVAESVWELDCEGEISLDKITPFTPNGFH

Row | Structure (SMILES) | NanoBRET Fold Response (DRD5; tracer 0.1μM) | NanoBRET Fold Response (DRD5; tracer 1μM) | NanoBRET Fold Response (LTB4R2; tracer 0.1μM) | NanoBRET Fold Response (LTB4R2; tracer 1μM) | NanoBRET Fold Response (BDKRB1; tracer 0.1μM) | NanoBRET Fold Response (BDKRB1; tracer 1μM) | NanoBRET Fold Response (GALR1; tracer 0.1μM) | NanoBRET Fold Response (GALR1; tracer 1μM)
1 | CC(C)N(CC[C@H](c1ccccc1)c1cc(CCNC(=O)CCOCCOCCOCCOCCNC(=O)CCc2ccc3n2[B-](F)(F)[N+]2=C(c4ccc[nH]4)C=CC2=C3)ccc1O)C(C)C [Tolterodine-2-NB590] | 1.01 | 1.04 | 1.00 | 1.22 | 0.99 | 0.79 | 1.04 | 0.99
2 | CC(C)N(CC[C@H](c1ccccc1)c1cc(CCNC(=O)c2ccc(CNC(=O)CCc3ccc4n3[B-](F)(F)[N+]3=C(c5ccc[nH]5)C=CC3=C4)cc2)ccc1O)C(C)C [Tolterodine-BZ-NB590] | 1.02 | 1.18 | 0.91 | 0.95 | 1.02 | 0.85 | 0.95 | 1.07
3 | CCCn1c(=O)c2[nH]c(-c3ccc(OCC(=O)NCCNC(=O)CCOCCNC(=O)c4ccc(CNC(=O)CCc5ccc6n5[B-](F)(F)[N+]5=C(c7ccc[nH]7)C=CC5=C6)cc4)cc3)nc2n(CCC)c1=O [XAC-3-NB590] | 0.99 | 1.00 | 0.93 | 0.98 | 0.91 | 0.94 | 1.02 | 1.04
